Test [1] has as its target Serine/threonine-protein kinase SIK3 (Homo sapiens) (UniProt Q9Y2K2). Description: Inhibition of QSK Lys2 labeling site in human A-375 cells at 0.05 uM by KiNativ Profiling analysis relative to control. It is filed as cell-based.
Test [2] concerns the target Serine/threonine-protein kinase 38 (Homo sapiens) (UniProt Q15208). Briefly: Inhibition of NDR1 Lys2 labeling site in human A-375 cells at 5 uM by KiNativ Profiling analysis relative to control. It is filed as cell-based.
Test [3] addresses Cyclin-dependent kinase 5 (Homo sapiens) (UniProt Q00535). Description: Inhibition of CDK5 Lys1 labeling site in human A-375 cells at 0.5 uM by KiNativ Profiling analysis relative to control. In kind it is cell-based.
Test [4] concerns the target Phosphatidylinositol 4-kinase beta (Homo sapiens) (UniProt Q9UBF8). Description: Inhibition of PI4KB ATP labeling site harbouring VPHTQAVVLNSKDKAPYLIYVEVLECENFDTTSVPAR in human A-375 cells at 0.05 uM by KiNativ Profiling analysis relative to control. It is filed as cell-based.
Test [5] deals with Diacylglycerol kinase alpha (Homo sapiens) (UniProt P23743). Briefly: Inhibition of DGKA ATP labeling site harbouring in human A-375 cells at 5 uM by KiNativ Profiling analysis relative to control. In kind it is cell-based.
Test [6] addresses 1-phosphatidylinositol 3-phosphate 5-kinase (Homo sapiens) (UniProt Q9Y2I7). Description: Inhibition of PIP5K3 ATP labeling site in human Huh-7 cells at 10 uM by KiNativ Profiling analysis relative to control. In kind it is cell-based.
Test [7] deals with Ephrin type-A receptor 4 (Homo sapiens) (UniProt P54764). Briefly: Inhibition of EPHA4 (unknown origin) at 10 uM by Ambit Kinomescan binding assay relative to control.
Sequence of Ephrin type-A receptor 4 (Homo sapiens) (P54764 whole entry): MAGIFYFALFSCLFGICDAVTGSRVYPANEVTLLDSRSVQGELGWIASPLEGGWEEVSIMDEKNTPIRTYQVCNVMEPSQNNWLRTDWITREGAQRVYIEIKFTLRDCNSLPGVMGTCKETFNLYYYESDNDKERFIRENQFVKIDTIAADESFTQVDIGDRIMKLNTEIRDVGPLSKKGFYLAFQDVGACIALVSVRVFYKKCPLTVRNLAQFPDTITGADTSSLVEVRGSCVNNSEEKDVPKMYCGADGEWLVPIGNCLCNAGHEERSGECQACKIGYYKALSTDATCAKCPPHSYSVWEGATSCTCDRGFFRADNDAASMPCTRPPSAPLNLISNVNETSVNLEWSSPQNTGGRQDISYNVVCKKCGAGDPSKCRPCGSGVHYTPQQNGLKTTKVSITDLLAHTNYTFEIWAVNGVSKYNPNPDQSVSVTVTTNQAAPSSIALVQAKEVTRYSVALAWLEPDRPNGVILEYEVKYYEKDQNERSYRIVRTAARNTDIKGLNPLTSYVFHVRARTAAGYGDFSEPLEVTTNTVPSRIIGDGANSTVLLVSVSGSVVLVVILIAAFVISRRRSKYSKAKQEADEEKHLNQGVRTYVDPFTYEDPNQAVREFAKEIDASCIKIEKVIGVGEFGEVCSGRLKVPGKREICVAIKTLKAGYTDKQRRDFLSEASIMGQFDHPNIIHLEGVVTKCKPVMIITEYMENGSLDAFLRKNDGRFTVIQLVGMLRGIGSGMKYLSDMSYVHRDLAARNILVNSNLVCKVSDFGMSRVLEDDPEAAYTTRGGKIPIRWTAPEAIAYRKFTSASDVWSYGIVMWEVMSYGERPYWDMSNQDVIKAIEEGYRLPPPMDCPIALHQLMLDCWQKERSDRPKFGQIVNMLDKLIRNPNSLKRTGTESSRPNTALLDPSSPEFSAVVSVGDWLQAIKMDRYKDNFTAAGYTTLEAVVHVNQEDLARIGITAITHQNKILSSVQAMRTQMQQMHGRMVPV
Test [8] has as its target Fibroblast growth factor receptor 2 (Homo sapiens) (UniProt P21802). Briefly: Inhibition of FGFR2 (unknown origin) at 10 uM by Ambit Kinomescan binding assay relative to control; values are per cent of control.
Test [9] addresses TGF-beta receptor type-1 (Homo sapiens) (UniProt P36897). Briefly: Inhibition of TGFBR1 (unknown origin) at 10 uM by Ambit Kinomescan binding assay.
Test [10] has as its target DNA-dependent protein kinase catalytic subunit (Homo sapiens) (UniProt P78527). Briefly: Inhibition of PRKDC ATP labeling site harbouring KGGSWIQEINVAEKNWYPR in human Huh-7 cells at 10 uM by KiNativ Profiling analysis relative to control. It is filed as cell-based.
The target in test [11] is T1, Serine/threonine-protein kinase LATS1 (Homo sapiens) (UniProt O95835).
T1 sequence (whole entry): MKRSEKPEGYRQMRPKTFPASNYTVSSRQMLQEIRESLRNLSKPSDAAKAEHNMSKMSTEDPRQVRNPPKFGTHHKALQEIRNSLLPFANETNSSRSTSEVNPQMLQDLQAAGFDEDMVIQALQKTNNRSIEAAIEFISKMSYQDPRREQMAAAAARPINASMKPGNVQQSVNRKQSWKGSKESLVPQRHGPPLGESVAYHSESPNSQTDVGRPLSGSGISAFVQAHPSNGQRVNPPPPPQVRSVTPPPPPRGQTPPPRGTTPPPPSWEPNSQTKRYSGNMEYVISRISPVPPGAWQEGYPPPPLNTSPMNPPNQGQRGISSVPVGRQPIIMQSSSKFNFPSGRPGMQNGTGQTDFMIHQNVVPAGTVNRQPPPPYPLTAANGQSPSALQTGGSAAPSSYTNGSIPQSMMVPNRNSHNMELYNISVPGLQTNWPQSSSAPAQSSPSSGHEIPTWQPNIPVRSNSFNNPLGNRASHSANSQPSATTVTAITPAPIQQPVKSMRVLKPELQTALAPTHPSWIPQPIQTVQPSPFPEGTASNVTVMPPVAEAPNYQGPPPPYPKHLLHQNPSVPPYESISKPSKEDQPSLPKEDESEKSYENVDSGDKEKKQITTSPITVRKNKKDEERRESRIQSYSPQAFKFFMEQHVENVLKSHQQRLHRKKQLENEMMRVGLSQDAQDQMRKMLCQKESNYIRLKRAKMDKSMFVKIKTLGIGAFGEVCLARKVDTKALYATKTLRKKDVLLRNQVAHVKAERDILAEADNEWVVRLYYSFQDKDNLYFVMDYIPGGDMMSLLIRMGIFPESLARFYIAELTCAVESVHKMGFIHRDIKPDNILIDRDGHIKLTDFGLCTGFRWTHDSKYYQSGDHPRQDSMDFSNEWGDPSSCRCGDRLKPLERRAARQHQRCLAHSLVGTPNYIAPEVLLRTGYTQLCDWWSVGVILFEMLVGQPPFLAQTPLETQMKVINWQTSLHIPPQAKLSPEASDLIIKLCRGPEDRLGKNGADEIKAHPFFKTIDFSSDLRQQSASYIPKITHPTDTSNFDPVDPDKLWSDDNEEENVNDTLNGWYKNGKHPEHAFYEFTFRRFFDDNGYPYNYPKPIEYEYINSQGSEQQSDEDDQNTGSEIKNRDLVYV
Description: Inhibition of LATS1 Lys2 labeling site in human A-375 cells at 5 uM by KiNativ Profiling analysis relative to control. It is filed as cell-based.

Test [12] addresses T2, Mitogen-activated protein kinase kinase kinase 2 (Homo sapiens) (UniProt Q9Y2U5).
T2 sequence (whole entry): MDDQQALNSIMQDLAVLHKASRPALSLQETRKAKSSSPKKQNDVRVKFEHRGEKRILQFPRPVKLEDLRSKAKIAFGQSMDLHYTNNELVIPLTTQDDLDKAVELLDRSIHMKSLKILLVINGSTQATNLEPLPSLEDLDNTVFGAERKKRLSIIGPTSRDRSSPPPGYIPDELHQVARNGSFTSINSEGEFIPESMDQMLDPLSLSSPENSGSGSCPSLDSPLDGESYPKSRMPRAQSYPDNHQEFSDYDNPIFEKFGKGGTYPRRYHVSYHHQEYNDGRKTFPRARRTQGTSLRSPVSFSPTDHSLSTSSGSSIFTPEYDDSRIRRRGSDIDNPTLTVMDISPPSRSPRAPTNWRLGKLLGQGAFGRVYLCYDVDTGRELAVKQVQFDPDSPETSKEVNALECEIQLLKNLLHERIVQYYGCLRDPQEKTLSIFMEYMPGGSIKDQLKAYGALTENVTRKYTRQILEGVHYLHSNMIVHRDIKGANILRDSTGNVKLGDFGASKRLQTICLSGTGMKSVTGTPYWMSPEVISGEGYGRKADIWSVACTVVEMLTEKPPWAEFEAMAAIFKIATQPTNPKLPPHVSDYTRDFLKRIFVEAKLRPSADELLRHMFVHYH
Description: Inhibition of MAP3K2 K1 labeling site in human Huh-7 cells at 10 uM by KiNativ Profiling analysis relative to control. In kind it is cell-based.

In test [13] the target is 5'-AMP-activated protein kinase catalytic subunit alpha-1 (Homo sapiens) (UniProt Q13131). Description: Inhibition of AMPKa1 Lys1 labeling site in human Huh-7 cell lysate at 1 uM by KiNativ Profiling analysis relative to control. In kind it is subcellular.
Test [14] has as its target Serine/threonine-protein kinase SMG1 (Homo sapiens) (UniProt Q96Q15). Description: Inhibition of SMG1 ATP labeling site in human Huh-7 cell lysate at 1 uM by KiNativ Profiling analysis relative to control. It is filed as subcellular.

We go through 3 compounds from ChEMBL document CHEMBL5696442, “Discovery of type II inhibitors of TGFβ-activated kinase 1 (TAK1) and mitogen-activated protein kinase kinase kinase kinase 2 (MAP4K2)” (J Med Chem, 2015).

The source made the active and inactive calls. The calls are words filed in the database; no cut-off is given here.

Sequence of DNA-dependent protein kinase catalytic subunit (Homo sapiens) (P78527 whole entry): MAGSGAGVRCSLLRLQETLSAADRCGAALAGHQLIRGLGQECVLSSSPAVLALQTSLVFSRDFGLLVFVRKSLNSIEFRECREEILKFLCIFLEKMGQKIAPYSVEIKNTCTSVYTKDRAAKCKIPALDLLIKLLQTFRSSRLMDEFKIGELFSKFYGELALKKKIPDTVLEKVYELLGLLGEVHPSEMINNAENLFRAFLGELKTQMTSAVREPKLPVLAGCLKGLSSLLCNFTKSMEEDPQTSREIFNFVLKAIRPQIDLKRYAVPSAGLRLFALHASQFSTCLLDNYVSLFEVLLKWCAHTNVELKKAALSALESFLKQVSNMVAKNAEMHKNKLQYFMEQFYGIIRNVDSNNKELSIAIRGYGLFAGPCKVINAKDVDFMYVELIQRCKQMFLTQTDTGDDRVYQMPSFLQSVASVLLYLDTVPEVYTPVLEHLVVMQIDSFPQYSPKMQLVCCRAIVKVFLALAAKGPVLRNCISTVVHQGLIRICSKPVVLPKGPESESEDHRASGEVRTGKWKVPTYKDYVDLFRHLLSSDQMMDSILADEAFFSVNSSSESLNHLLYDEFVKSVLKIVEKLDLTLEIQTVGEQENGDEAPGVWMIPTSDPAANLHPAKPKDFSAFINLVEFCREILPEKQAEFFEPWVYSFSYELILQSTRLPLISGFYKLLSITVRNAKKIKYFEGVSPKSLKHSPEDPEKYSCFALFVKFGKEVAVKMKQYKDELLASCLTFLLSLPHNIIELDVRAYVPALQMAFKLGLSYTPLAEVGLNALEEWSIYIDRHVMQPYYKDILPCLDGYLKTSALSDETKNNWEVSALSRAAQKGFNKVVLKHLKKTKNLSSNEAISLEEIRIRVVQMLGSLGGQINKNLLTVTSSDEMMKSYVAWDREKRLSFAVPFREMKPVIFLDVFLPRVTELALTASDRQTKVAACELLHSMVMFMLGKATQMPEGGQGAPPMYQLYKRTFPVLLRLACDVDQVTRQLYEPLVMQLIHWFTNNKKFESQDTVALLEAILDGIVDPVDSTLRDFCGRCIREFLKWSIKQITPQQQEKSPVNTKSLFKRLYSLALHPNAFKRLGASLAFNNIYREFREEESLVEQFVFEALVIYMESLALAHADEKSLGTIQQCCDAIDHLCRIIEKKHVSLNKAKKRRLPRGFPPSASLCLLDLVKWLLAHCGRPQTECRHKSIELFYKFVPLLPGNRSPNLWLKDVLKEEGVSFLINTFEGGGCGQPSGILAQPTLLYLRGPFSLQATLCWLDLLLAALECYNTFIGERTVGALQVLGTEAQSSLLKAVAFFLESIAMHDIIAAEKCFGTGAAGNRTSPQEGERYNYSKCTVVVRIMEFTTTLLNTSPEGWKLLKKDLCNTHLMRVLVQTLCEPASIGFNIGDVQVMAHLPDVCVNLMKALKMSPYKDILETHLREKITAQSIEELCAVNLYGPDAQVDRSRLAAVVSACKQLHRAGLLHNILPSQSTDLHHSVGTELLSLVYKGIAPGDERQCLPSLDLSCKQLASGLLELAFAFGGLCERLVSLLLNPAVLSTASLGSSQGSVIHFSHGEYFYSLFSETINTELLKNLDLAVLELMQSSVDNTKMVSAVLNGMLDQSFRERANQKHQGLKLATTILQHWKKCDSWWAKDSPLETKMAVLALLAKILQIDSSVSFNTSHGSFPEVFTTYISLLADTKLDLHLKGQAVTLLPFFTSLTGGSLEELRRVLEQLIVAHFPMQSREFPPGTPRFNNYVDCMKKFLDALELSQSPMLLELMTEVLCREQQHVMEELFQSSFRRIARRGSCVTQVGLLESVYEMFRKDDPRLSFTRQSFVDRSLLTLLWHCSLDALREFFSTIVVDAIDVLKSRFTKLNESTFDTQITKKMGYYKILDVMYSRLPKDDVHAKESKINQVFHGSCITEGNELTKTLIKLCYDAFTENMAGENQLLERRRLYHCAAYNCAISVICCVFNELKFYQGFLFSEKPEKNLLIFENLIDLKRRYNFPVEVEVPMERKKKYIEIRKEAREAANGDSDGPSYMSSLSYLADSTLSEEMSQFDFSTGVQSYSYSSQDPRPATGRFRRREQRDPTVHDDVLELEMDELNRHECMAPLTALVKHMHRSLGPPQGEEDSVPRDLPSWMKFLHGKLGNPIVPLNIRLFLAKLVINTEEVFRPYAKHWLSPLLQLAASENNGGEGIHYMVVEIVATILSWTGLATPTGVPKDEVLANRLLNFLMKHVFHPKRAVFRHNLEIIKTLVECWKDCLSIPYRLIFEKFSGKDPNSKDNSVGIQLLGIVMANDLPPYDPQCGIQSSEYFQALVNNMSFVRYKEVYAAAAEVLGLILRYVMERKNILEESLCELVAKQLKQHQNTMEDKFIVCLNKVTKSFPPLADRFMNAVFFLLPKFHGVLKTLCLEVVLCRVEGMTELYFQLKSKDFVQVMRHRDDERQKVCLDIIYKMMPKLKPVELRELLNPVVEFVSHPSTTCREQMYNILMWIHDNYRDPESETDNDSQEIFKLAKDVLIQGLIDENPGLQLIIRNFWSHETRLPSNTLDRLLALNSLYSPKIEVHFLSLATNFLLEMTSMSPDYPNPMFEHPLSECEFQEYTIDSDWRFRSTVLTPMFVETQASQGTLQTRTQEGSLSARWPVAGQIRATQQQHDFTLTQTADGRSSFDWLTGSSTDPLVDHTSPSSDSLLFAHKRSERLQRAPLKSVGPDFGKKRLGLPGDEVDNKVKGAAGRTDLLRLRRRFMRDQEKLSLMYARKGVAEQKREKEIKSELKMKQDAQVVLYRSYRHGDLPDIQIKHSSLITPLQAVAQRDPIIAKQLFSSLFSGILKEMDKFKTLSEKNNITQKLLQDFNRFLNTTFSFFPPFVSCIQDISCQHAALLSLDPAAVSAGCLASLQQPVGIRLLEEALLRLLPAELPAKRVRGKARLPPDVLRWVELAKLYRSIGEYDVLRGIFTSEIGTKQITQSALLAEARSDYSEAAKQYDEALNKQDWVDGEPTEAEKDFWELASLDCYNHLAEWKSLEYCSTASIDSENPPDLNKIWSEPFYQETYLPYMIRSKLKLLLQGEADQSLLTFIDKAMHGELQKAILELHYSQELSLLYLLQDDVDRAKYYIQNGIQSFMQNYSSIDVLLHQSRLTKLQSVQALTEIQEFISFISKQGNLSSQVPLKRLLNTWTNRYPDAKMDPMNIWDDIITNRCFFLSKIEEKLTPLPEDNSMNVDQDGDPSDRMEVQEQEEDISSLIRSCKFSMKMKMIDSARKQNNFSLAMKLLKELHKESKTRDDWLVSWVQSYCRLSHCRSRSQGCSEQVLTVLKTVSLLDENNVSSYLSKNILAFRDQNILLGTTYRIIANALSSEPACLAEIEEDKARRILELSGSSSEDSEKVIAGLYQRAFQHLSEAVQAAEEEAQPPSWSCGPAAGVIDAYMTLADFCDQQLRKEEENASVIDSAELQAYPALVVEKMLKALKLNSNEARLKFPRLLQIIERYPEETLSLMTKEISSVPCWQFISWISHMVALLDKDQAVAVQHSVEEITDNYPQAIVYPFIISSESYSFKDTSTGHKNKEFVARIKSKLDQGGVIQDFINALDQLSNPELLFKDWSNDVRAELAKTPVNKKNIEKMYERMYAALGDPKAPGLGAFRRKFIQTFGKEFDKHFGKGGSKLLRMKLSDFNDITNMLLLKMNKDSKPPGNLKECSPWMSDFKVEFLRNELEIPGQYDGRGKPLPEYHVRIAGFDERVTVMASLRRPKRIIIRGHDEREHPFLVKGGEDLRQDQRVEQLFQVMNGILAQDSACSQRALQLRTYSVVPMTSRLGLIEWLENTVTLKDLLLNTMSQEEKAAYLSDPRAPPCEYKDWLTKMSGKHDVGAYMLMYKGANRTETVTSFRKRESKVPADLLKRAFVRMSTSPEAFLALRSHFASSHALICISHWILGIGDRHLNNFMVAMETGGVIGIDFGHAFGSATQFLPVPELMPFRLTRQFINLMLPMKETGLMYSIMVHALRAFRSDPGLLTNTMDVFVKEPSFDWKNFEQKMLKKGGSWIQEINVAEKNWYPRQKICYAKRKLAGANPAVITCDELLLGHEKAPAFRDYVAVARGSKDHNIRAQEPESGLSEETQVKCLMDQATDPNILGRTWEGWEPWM

By inhibition is commonly meant the relative decrease from the control value, in per cent. `CCN1CCN(Cc2ccc(NC(=O)c3ccc(C)c(/C=C/c4cnc5[nH]ccc5c4OC)c3)cc2C(F)(F)F)CC1`: the inhibition was 29.6% in test [1]; 25.3% in test [2]; -4.1% in [3]; 11.6% in test [4]; -1.8% in test [5].
On to `CCN1CCN(Cc2ccc(NC(=O)c3ccc(C)c(Oc4ccnc5[nH]ccc45)c3)cc2C(F)(F)F)CC1`, for which the inhibition in test [6] is 13.8%; in [7], 5.8%; in [10], 1.9%; in test [11], -6.4%; in test [12] it was 31.6%. The compound also returned a percent of control in test [8] of 1.4%. In [9], the inhibition entry was “inactive”.
With `CNc1cc(Oc2cc(C(=O)Nc3cc(N4CCN(C)CC4)cc(C(F)(F)F)c3)ccc2C)ncn1`, the inhibition in test [13] was 8.7%; in test [14], 4.2%.
